Results from patent US12024518B1, “Pyrazolo[4,3-C][1,6]naphthyridines as CK2 inhibitors” (KING FAISAL UNIVERSITY, priority 2023, dated 2024).

Columns and labels:
PC3 (prostate) = test: In vitro cytotoxic activity (MTT) assay, PC3; type: cell-based; details: Homo sapiens; PC3 (prostate) cells, exposed for 96 hours, 50% inhibition of cell proliferation; read-out: Cytotoxicity activity IC50
Method: (§1) Compounds 1-16 were screened for their in vitro cytotoxic activity utilizing a 3-(4,5-dimethyl-thiazol-2-yl)-2,5-diphenyltetrazolium bromide (MTT) assay against selected cancer human cell lines consisting of PC3 (prostate), HCT116 (colon), A375 (melanoma), H1299 (lung), MIAPaCa-2 (pancreas), HL60 (leukemia), MCF7 (breast), MDA-MB-231 (breast) (T. Mosmann, J. Immunol. Meth., 1983, 65, 55-63). The cells were cultured at 37° C. in RMPI1640 medium supplemented with 10% fetal bovine serum, 50 IU/mL penicillin, and 50 μg/mL streptomycin in a 5% CO2 incubator. All cells were sub-cultured 3 times/week by trypsinisation. Viable cells were seeded and allowed to adhere for 12 hours before a test drug was added in 96-well plates at an initial density of 1.0×10^5 cells/mL. Tumor cell lines were separately exposed to various concentrations of the tested compounds followed by incubation at a temperature of 37° C. during 96 hours inside a medium of fresh RMPI 1640. Cells were subsequently incubated at 37° C. using MTT at 0.5 mg/mL during 4 hours. After removal of supernatant, formazan crystals were dissolved in isopropanol and the optical density was measured at 570 nm. CX-4945 was used as a positive control.

HCT116 (colon) = test: In vitro cytotoxic activity (MTT) assay, HCT116; type: cell-based; details: Homo sapiens, HCT-116; HCT116 (colon) cells, exposed for 96 hours, 50% inhibition of cell proliferation; read-out: Cytotoxicity activity IC50
Method: as §1

A375 (melanoma) = test: In vitro cytotoxic activity (MTT) assay, A375; type: cell-based; details: Homo sapiens, A-375; A375 (melanoma) cells, exposed for 96 hours, 50% inhibition of cell proliferation; read-out: Cytotoxicity activity IC50
Method: as §1

H1299 (lung) = test: In vitro cytotoxic activity (MTT) assay, H1299; type: cell-based; details: Homo sapiens, NCI-H1299; H1299 (lung) cells, exposed for 96 hours, 50% inhibition of cell proliferation; read-out: Cytotoxicity activity IC50
Method: as §1

MIAPaCa-2 (pancreas) = test: In vitro cytotoxic activity (MTT) assay, MIAPaCa-2; type: cell-based; details: Homo sapiens, MIA PaCa-2; MIAPaCa-2 (pancreas) cells, exposed for 96 hours, 50% inhibition of cell proliferation; read-out: Cytotoxicity activity IC50
Method: as §1

HL60 (leukemia) = test: In vitro cytotoxic activity (MTT) assay, HL60; type: cell-based; details: Homo sapiens, HL-60; HL60 (leukemia) cells, exposed for 96 hours, 50% inhibition of cell proliferation; read-out: Cytotoxicity activity IC50
Method: as §1

MCF7 (breast) = test: In vitro cytotoxic activity (MTT) assay, MCF7; type: cell-based; details: Homo sapiens; MCF7 (breast) cells, exposed for 96 hours, 50% inhibition of cell proliferation; read-out: Cytotoxicity activity IC50
Method: as §1

MDA-MB-231 (breast) = test: In vitro cytotoxic activity (MTT) assay, MDA-MB-231; type: cell-based; details: Homo sapiens; MDA-MB-231 (breast) cells, exposed for 96 hours, 50% inhibition of cell proliferation; read-out: Cytotoxicity activity IC50
Method: as §1

[1] = molecular target: T1, recombinant human CK2 (RRββ-holoenzyme) (Homo sapiens, UniProt P68400); test: CK2 Kinase Assay (33P-ATP, substrate peptide RRRDDDSDDD); type: biochemical; details: final ATP concentration 15 μM, 10 min at 30° C., eight concentrations; read-out: protein kinase CK2 inhibition IC50
T1 construct: purchased Millipore
Method: CK2 Kinase Assay was conducted using the protocol as described in Pierre F. et al; J. Med. Chem. 2011, 54, 635-654. The tested compounds in aqueous solution were added at a volume of 10 μL to a reaction mixture comprising 10 μL of assay dilution buffer (ADB; 20 mM MOPS, pH 7.2, 25 mM β-glycerol phosphate, 5 mM EGTA, 1 mM sodium orthovanadate, and 1 mM dithiothreitol), 10 μL of substrate peptide (RRRDDDSDDD, dissolved in ADB at a concentration of 1 mM), 10 μL of recombinant human CK2 (RRββ-holoenzyme, 25 ng dissolved in ADB; Millipore). Reactions were initiated by the addition of 10 μL of ATP solution (90% 75 mMMgCl2, 75 μM ATP (final ATP concentration: 15 μM) dissolved in ADB; 10% [γ-33P] ATP (stock 1 mCi/100 μL; 3000 Ci/mmol (Perkin-Elmer) and maintained for 10 min at 30° C. The reactions were quenched with 100 μL of 0.75% phosphoric acid and then transferred to and filtered through a phosphor cellulose filter plate (Millipore). After washing each well five times with 0.75% phosphoric acid, the plate was dried under vacuum for 5 min and, following the addition of 15 μL of scintillation fluid to each well, the residual radioactivity was measured using a Wallac luminescence counter. The IC50 values were derived from eight concentrations of test inhibitors.

T1 sequence (P68400 whole entry): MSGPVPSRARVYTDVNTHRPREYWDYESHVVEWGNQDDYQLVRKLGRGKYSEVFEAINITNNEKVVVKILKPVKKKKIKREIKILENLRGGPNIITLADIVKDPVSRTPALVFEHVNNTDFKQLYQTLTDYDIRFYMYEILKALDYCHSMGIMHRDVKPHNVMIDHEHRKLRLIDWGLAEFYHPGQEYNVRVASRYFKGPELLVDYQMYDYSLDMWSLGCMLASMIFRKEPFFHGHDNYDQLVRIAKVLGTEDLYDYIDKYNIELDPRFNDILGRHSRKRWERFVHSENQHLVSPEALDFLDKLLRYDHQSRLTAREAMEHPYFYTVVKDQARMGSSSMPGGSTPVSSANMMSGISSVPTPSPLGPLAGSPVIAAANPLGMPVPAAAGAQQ
T1 sequence (P67870 whole entry partner): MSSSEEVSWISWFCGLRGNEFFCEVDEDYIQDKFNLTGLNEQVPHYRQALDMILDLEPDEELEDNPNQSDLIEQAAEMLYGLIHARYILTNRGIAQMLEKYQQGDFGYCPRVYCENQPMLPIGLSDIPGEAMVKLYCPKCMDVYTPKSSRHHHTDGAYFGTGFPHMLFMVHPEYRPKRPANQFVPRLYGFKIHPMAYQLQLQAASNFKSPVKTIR

Question: What does the source list for O=C(O)c1n[nH]c2c1c(Nc1cccc(Cl)c1)nc1ccncc12 [Compound 1, 4-((3-chlorophenyl)amino)-1H-pyrazolo[4,3-c][1,6]naphthyridine-3-carboxylic acid]?
Answer: IC50 (PC3 (prostate)): 2500 nM; IC50 (HCT116 (colon)): 1700 nM; IC50 (A375 (melanoma)): 3800 nM; IC50 (H1299 (lung)): 1900 nM; IC50 (MIAPaCa-2 (pancreas)): 1400 nM; IC50 (HL60 (leukemia)): 2900 nM; IC50 (MCF7 (breast)): 6300 nM; IC50 (MDA-MB-231 (breast)): 5800 nM; IC50 [1]: 48 nM
